Experimental data as given in US5079239A, “Sterol disulfates and methods of use” (Harbor Branch Oceanographic Institution, Inc., priority 1990, dated 1992).
Values after ≈ are worked out from the molar mass of the structure shown. Read-outs that look alike come from different tables or passages of the source.

Experiments:
P388 = assay: Standard P388 assay (tumor cell growth inhibition); format: cell-based
Source text: HB100 has also been tested to determine its activity in inhibiting the growth of tumor cells.

[1] = test system: feline leukemia virus (FeLV); assay: Feline leukemia virus (FeLV) antiviral drug test; format: cell-based; details: for EC50: Feline leukemia virus; for TI: in vitro therapeutic index, ratio of IC50/EC50, FeLV; for activity against the feline leukemia virus: result in words, Tables 1 through 3
Source text: Feline leukemia viruses belong to the retrovirus family. Diseases caused by members of this family in cats have clinical manifestations similar to symptoms observed in humans with diseases caused by the human immunodeficiency viruses. Feline leukemia virus was selected as a representative member of the retrovirus family to use as a model for drug testing to search for compounds effective in preventing viral infection and replication. Cell lines were provided by Hansen Veterinary Immunology, and reagents and protocols for the ELISA assay can be purchased from the same company.
(§1) Antiviral activity on crude extracts is expressed by percent antiviral activity or by using the minus and plus values stated above. The EC50 of an antiviral drug represents the concentration of drug that results in 50% reduction of the viral cytopathic effect and the IC50 represents the concentration resulting in 50% growth inhibition. These values are determined from graphs constructed from the raw data. The in vitro therapeutic index (TI) is the ratio of IC50 /EC50.

CRFK cells = assay: Toxicity for CRFK cells (neutral red or MTT assay), FeLV test; format: cell-based
Procedure: A. Determination of Toxicity of Samples for CRFK Cells with Neutral Red Assay or MTT Assay
This assay is a modification of a procedure provided in detail by Dr. Ellen Borenfreund from Rockefeller University. Borenfreund, E., and J. A. Puerner (1984) "A Simple Quantitative Procedure Using Monolayer Cultures for Cytotoxicity Assays (HTD/NR-90)," J. Tissue Culture Methods 9:7-9.
b. MTT is diluted in D-MEM maintenance medium at a concentration of 1 mg per ml. For the toxicity test 75 microliters are added to each well of a 96-well plate without removing any medium. The plates are incubated for 6 hours at 37° C. At the end of the incubation period the medium is removed. If the cell layer is adherent, plates are not centrifuged to bring the cells down. CRFK is an adherent cell line, and for the MTT assay, no centrifugation is required. To each well 200 microliters of isopropyl alcohol are added. The formazan crystals are dissolved. After mixing, the plates are read with a plate reader at a wavelength of 570 nm. Toxicity percentages are determined the same as for neutral red.
as §1

[2] = Cytotoxicity scoring in coronavirus A59 assay; format: cell-based; details: mouse, nctc 1469 cells, read-out: toxicity
Source text: (§2) The antiviral assay for A59 is a cytopathic test (CPE). Susceptible cells are infected with the virus at a dose that infects most of the cells and produces CPE. The characteristic CPE observed is the formation of syncytia. Compounds and extracts which inhibit the CPE are referred to as active samples.
(§3) 1. NCTC clone 1469 is a derivative of mouse liver.
100%=complete cell destruction
75%=partial cell destruction
50%=partial cell destruction
25%=partial cell destruction

[3] = test system: mouse coronavirus A59 (MHV-A59); assay: Antiviral assay for mouse coronavirus A59 (CPE); format: cell-based, mouse hepatitis virus strain MHV-A59; design: key to activity: +++: complete inhibition of CPE and cell fusion; ++: partial inhibition; +: partial inhibition; +/-: partial inhibition; -: no protection
Procedure: as §2, §3
1. Mouse hepatitis virus strain MHV-A59 classified as a coronavirus.
1. Dilute drug or extract for test in the appropriate solvent.
2. Add 20 μl per tube or well.
3. Allow the solvent to evaporate under the laminar flow hood.
4. Dilute the MHV-A59 in Dulbecco's phosphate buffered saline with Ca^++ and Mg^++ to the appropriate predetermined dilution for the lot number currently in use.
5. Remove medium from wells of 24 well plate containing NCTC 1469 cells seeded 24 hours earlier.
6. Medium can be removed by pouring the fluid from the plate and blotting it on a sterile towel.
7. Add 200 lambda of diluted virus to each test well. Add PBS to control wells.
8. Incubate cells and virus for 1 hour at 37° C.
9. Pour off supernatant at end of incubation period.
10. To each glass tube add 10 lambda of dimethyl sulfoxide (DMSO). The purpose for the DMSO is to solubilize the drug. If it is known that the drug under test is water soluble, then the DMSO is not necessary. However, in cases of testing unknown compounds, DMSO may be added, but DMSO causes some toxicity. Since differences have been noted with and without DMSO, the preferred technique is to test the sample under both conditions.
11. Add 1 ml of maintenance medium to each glass tube.
12. Pour the contents of the glass tube into the corresponding well of the tissue culture plate.
13. Incubate infected cells at 37° C. and read the following day.
14. At 12 hours, areas of cell fusion are quite apparent and can be detected both visually and microscopically.
15. […]
To assist in visual interpretation of the data, the antiviral activity is scored from a minus to a three plus based on the percentage of inhibition of viral cytopathic effects. […]

[4] = test system: human immunodeficiency virus (HIV); assay: HIV (AIDS virus) antiviral assay; format: cell-based
Procedure: as §1

murine splenocytes = assay: Two-way mixed lymphocyte reaction (MLR); format: cell-based, mouse (BALB/c and C57BL/6J)
Procedure: The pure compound was tested in the two-way mixed lymphocyte reaction (MLR) and a lymphocyte viability assay (LCV) at 500, 50, 5, and 0.5 μg/ml, using murine splenocytes. Cellular proliferation was measured using incorporation of ^3 H-thymidine. Responses were reported as a percent of the positive MLR or LCV control.
1. Murine splenocyte suspensions were prepared separately from BALB/c and C57BL/6J mice. Spleens were aseptically removed and homogenized in RPMI 1640 tissue culture medium (TCM), supplemented with 10% fetal calf serum, 2% 1-glutamine, 15 mM HEPES, 1% antibiotic-antimycotic solution, and 25 μg/ml gentamycin (GIBCO). The cell concentrations were adjusted to 2.5×10^6 cells/ml. Aliquots of each cell population were removed to separate tubes, and the remaining two cell suspensions combined to one tube.
2. Serial, log10 dilutions of the pure compound were made in absolute ethanol, and 10 μl of each dilution were added to wells of microtiter test plates, and allowed to dry.
3. A volume of 0.2 ml of the combined splenocyte suspensions was added to triplicate test wells. Positive control wells received combined splenocyte suspensions in the absence of the test compounds. Negative control wells consisted of separate (not mixed) splenocyte suspensions cultured in the absence of the test compounds.
4. Plates were incubated in 5% CO2 at 37° C. for 86 hours.
5. A volume of 0.05 ml of ^3 H-thymidine (20 (μCi/ml) was added to each well, and the plates incubated in 5% CO2 at 37° C. for an additional 5 hours.
6. The contents of each well of the microtiter plates were harvested onto glass fiber filter strips, and the resulting filter discs placed in scintillation vials to which 2.0 ml of scintillation fluid was added.
7. The amount of incorporated ^3 H-thymidine was determined by counting the vials in a liquid scintillation counter.
8. Triplicate counts were averaged, and the data reported as a percentage of the positive control.

[5] = 50% growth inhibition (toxicity) in HIV assay; format: cell-based
Procedure: as §1

[6] = FeLV assay, 50% growth inhibition, molar value, read-out: IC50 (in parentheses)

| Structure (SMILES) | IC50 (P388; Mus musculus, standard P388 assay) | inhibition of growth of tumor cells (P388; result in words) | EC50 [1] | TI [1] | activity against the feline leukemia virus [1] | IC50 (CRFK cells) | IC50 (CRFK cells; [6]) | cytotoxicity ([2]; 2 μg) | cytotoxicity ([2]; 20 μg) | activity ([3]; 2 μg) | activity ([3]; 20 μg) | inhibition of viral growth ([3]; 20 μg, result in words) | TI ([4]; in vitro therapeutic index, ratio of IC50/EC50, HIV) | activity against the AIDS virus ([4]; result in words) | activity at 0.05 µg/mL (murine splenocytes; Mus musculus, Splenocyte, 0.05 μg/ml, percent of positive control) | activity at 5 µg/mL (murine splenocytes; Mus musculus, Splenocyte, 5.00 μg/ml, percent of positive control) | activity at 50 µg/mL (murine splenocytes; Mus musculus, Splenocyte, 50.00 μg/ml, percent of positive control) | activity at 500 µg/mL (murine splenocytes; Mus musculus, Splenocyte, 500.00 μg/ml, percent of positive control) | immunosuppressive activity (MLR <100% and LCV >70%) (murine splenocytes; at 50 μg/ml and 5 μg/ml, result in words) | IC50 [5] |
| --- | --- | --- | --- | --- | --- | --- | --- | --- | --- | --- | --- | --- | --- | --- | --- | --- | --- | --- | --- | --- |
| CC(CCC1(C(C)C)CC1C)C1C(O)CC2C3CCC4CC(OS(=O)(=O)O)C(OS(=O)(=O)O)CC4(C)C3CCC21CO (stereo not drawn) [HB100] | 0.1 µg/mL (≈ 0.157 µM) | inhibit the growth of tumor cells | 26 µg/mL (≈ 40.8 µM) | 7.1 | showed activity against the feline leukemia virus | 185 µg/mL | 272 µM |  |  |  |  |  |  |  |  |  |  |  |  |  |
| CCCC12OC3CC4C5CCC6CC(OS(=O)(=O)O)C(OS(=O)(=O)O)CC6(C)C5CCC4(C)C3C(C)(O1)C(CC1(C(C)C)CC1C)O2 (stereo not drawn) [HB124] |  |  | 6.25 µg/mL (≈ 8.87 µM) | > 8 | showed activity against the feline leukemia virus | > 50 µg/mL | > 68 µM | 0% | 25% | - | ++ | significantly inhibit viral growth |  |  |  |  |  |  |  |  |
| CC(C)C1(CCC(C)(O)C2C(O)CC3C4CCC5CC(OS(=O)(=O)O)C(OS(=O)(=O)O)CC5(C)C4CCC32C)CC1C (stereo not drawn) [HB99] |  |  | 20 µg/mL (≈ 31.4 µM) | 17.5 | showed activity against the feline leukemia virus | 350 µg/mL | 514 µM |  |  |  |  |  | 70 | showed activity against the AIDS virus | 126% | 98% | 19% | 0% | exhibited immunosuppressive activity | 350 µg/mL (≈ 550 µM) |
